Data reported in patent US20230391714A1, “INHIBITORS OF THE INTERACTION BETWEEN TRIP8B AND HCN CHANNELS AND USES THEREOF FOR TREATING NEUROLOGICAL DISEASES AND DISORDERS” (Northwestern University, priority 2022, published 2023).
Where two headings read alike, the source gives them in different places.

Key:
[1] = Thermodynamic solubility in PBS; type: physicochemical; details: PBS at pH 7.4, room temperature, stirring for 16 hours; for solubility thermodynamic at 16 h: aqueous buffer, thermodynamic from solid
Source text: (§1) Solubility and Mouse Microsomal Stability. […] In order to improve the aqueous solubility to support additional biochemical assays we made and characterized several salt forms. The formic acid (FA) salt was recovered after reverse-phase preparative HPLC while using formic acid as a modifier. […] On stirring the free amine in 4M HCl in dioxane, the compound was converted to the HCl salt as a white solid (Scheme 1). […] As a result, the HCl-salt of NUCC-0200590 was used for biophysical assays. The inhibitor was also screened for in vitro stability towards mouse liver microsomes to evaluate its potential metabolism and suitability for future in vivo experiments. The microsomal stability was measured after a 60-minute incubation at 37° C. with mouse liver microsomes. The compound was almost completely consumed by mouse liver microsomes after a 60-minute incubation as only 3.7% of the parent compound remained.

[2] = DMSO needed in PBS to see proton signals in 1H-NMR (aqueous solubility); type: physicochemical; details: PBS (pH 7.4)
Source text: as §1

[3] = biological target: TRIP8b and HCN1 (Homo sapiens (Human), UniProt Q8IYB4); experiment: NanoBiT live cell protein-protein interaction assay; type: cell-based; details: HEK293T cells, 30 min incubation
Sequence of TRIP8b and HCN1 (Q8IYB4 other isoform, or with tags, fused parts or gaps, species assumed): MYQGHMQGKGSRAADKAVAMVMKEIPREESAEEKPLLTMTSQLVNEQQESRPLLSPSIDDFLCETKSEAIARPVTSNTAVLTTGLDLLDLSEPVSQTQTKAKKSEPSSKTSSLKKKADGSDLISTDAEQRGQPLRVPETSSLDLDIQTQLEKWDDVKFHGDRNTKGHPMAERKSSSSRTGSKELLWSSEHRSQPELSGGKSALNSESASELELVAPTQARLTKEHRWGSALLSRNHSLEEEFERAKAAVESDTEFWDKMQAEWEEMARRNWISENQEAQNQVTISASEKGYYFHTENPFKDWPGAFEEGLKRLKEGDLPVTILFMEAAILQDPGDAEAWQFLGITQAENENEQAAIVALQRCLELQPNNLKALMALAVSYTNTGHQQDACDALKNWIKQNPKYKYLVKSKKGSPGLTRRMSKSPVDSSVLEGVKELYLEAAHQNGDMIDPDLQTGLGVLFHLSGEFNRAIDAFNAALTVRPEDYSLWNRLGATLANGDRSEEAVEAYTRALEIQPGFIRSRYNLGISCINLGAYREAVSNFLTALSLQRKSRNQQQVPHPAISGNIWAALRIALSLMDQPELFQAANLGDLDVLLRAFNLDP
Experimental: NanoBiT live cell protein-protein interaction assay. HEK293T cells (obtained freshly from ATCC) were plated in DMEM (Thermo Fisher, #11965-092) with 10% FBS (Thermo Fisher, #16000-044) and Pen/Strep (Thermo Fisher #15140-122) at 1 million cells per well in 6-well tissue culture treated plates. The next day, cells were co-transfected using Lipofectamine 3000 with plasmids encoding the small Nanoluciferase fragment (SmBiT) fused to the N-terminus of full-length HCN1 (SmBiT-HCN1), and the large Nanoluciferase fragment (LgBiT) fused to the N-terminus of TRIP8b(1a-4) (LgBiT-TRIP8b). The plasmids were constructed by cloning into backbone vectors from the Promega NanoBiT MCS cloning kit #N2014. As a control for specific inhibition, other cells were co-transfected with SmBiT-PRKACA and LgBiT-PRKAR2A positive control plasmids from the kit. 24 hours post-transfection, the cells were trypsinized with TrypLE (Thermo Fisher, #12604-013), washed and suspended in phenol red-free Opti-MEM I (Thermo Fisher, #11058-021), and 25,000 cells per well were plated in white 384-well tissue culture-treated plates (Greiner #781080). […] Luminescence was generated by adding Nano-Glo live cell substrate (Promega, #N2011) and incubating for 30 minutes at 37° C. prior to detecting on a luminescent reader (Biotek Neo2).

[4] = biological target: TRIP8b-HCN1c40 (Homo sapiens (Human), UniProt Q8IYB4); experiment: TRIP8b-HCN1c40 AlphaScreen assay; type: binding
Sequence of TRIP8b-HCN1c40 (Q8IYB4 265-626): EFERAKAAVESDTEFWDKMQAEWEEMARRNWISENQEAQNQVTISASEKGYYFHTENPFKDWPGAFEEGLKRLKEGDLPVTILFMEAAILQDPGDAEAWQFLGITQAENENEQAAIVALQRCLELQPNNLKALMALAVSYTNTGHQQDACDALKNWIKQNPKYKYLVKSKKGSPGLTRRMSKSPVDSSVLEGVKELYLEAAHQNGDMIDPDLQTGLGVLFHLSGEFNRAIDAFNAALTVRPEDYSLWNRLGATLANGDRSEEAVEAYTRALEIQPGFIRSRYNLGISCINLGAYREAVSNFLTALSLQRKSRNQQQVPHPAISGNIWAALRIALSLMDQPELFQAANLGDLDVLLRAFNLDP
Experimental: AlphaScreen Assay. 20 nM ofGST-tagged HCNlc40 protein (corresponding to the C terminal 40 amino acids of HCN1) was incubated with 200 nM of His-tagged TRIP8b(241-602) and varying concentrations of the test compound as described in our prior report (Han et al., 2015). After a 3 h incubation, anti-GST AlphaScreen acceptor beads were added for 1.5 h followed by AlphaScreen nickel chelate donor beads for 1.5 h. AlphaScreen signal was quantified using a PerkinElmer (Waltham, MA) EnSpire multimode plate reader.

[5] = test system: HCN channels in CA1 pyramidal neurons; experiment: Slice electrophysiology in CA1 pyramidal neurons; type: cell-based, mice; details: 15 μM
Experimental: Slice Electrophysiology. Whole cell recordings from CA1 pyramidal neurons were performed using an electrophysiology rig described previously (Zhou et al., 2013; 2015). 300 micron sagittal sections were made from male and female mice with 5 μM CGP52432, 2 μM SR-95531, and 10 μM MK-801 to block GABAB, GABAA, and NMDAR. ACSF was composed of 125 mM NaCl, 2.5 mM KCl, 25 mM NaHCO3, 1.25 mM Na2PO4, 1 mM MgCl2, 2 mM CaCl2), and 25 mM glucose while the internal solution was 115 mM K-gluconate, 20 mM KCl, 10 mM Na2Phosphocreatinine, 2 mM MgATP, and 0.3 mM NaGTP. NUCC-0200590 was incubated in the slice chamber in a subset of experiments as described in the text. Current clamp recordings were performed at a holding potential of −70 mV.

[6] = Mouse liver microsomal stability; type: in vitro ADME; details: 60-minute incubation at 37° C. with mouse liver microsomes
Source text: as §1

[7] = test system: HEK293T cells; experiment: Cell viability assay (alamar Blue); type: cell-based; details: 0-50 μM, 24 hours
Experimental: Cell Viability Assays. HEK293T Cells (ATCC, Manassas, Virginia) were maintained as previously described (Lyman et al., 2017b). These cells were plated at 30-50% confluence and incubated for 24 hours with the concentration of NUCC-0200590 specified in the main text. The cells were then incubated with alamar Blue assay reagent per the Manufacturer's instructions (ThermoFisher, Rockford, IL) prior to reading the plates on a plate reader.

[8] = activity ranges, read-out: TRIP8b-HCN1c40 Alphascreen IC50 activity
[9] = read-out: TRIP8b-HCN1c40 Alphascreen IC50

## CN1CCN(Cc2cc(-c3ccc(F)cc3)ccc2OCC(=O)NCc2ccc(Cl)cc2)CC1.O=CO [NUCC-0200590 FA salt, N-(4-chlorobenzyl)-2-((4′-fluoro-3-((4-methylpiperazin-1-yl)methyl)-[1,1′-biphenyl]-4-yl)oxy)acetamide formate]
[1]
  solubility thermodynamic at 16 h: 45 µM
[2]
  DMSO in PBS required to see proton signals in 1H-NMR: 15%

## CN1CCN(Cc2cc(-c3ccc(F)cc3)ccc2OCC(=O)NCc2ccc(Cl)cc2)CC1.Cl [NUCC-0200590 HCl salt, N-(4-chlorobenzyl)-2-((4′-fluoro-3-((4-methylpiperazin-1-yl)methyl)-[1,1′-biphenyl]-4-yl)oxy)acetamide hydrochloride]
[3]
  disruption of TRIP8b-HCN1 interaction (NanoBiT luminescence): disrupts the interaction between fragments of TRIP8b and HCN1 in live cells
[1]
  solubility thermodynamic at 16 h: 252 µM

## CN1CCN(Cc2cc(-c3ccc(F)cc3)ccc2OCC(=O)NCc2ccc(Cl)cc2)CC1 [NUCC-0200590, N-(4-chlorobenzyl)-2-((4′-fluoro-3-((4-methylpiperazin-1-yl)methyl)-[1,1′-biphenyl]-4-yl)oxy)acetamide]
[4]; [8]
  IC50: 5 to 10 µM
[4]; most potent hit compound of in silico screen, read-out: IC50 value in the AlphaScreen assay
  IC50: 19.9 ± 0.9 µM
[4]; [9]
  IC50: 5.4 µM
[5]; Trip8b+/+ mice
  sag ratio: 1.14±0.01
[5]; Trip8b−/− mice
  sag ratio: 1.05±0.02
[1]
  thermodynamic solubility: completely insoluble
[6]
  parent compound remained: 3.7%
[7]
  viability as percentage of 0 μM control: main effect of concentration

## CC(Oc1ccc(-c2ccc([N+](=O)[O-])cc2)cc1CN1CCN(C)CC1)C(=O)NCc1ccc(Cl)cc1 (stereo not shown) [NUCC-0202034]
[4]; [8]
  IC50: 2 to 5 µM
[4]; [9]
  IC50: 2.7 µM

## Cc1ccc([C@@H](C)NC(=O)C(C)Oc2ccc(-c3ccc(Cl)cc3)cc2CN2CCN(C)CC2)cc1 (stereo partly shown) [NUCC-0202046]
[4]; [8]
  IC50: < 1 µM
[4]; [9]
  IC50: 0.84 µM

## Cc1ccc([C@@H](C)NC(=O)C(C)Oc2ccc(-c3ccc(Cl)c(Cl)c3)cc2CN2CCN(C)CC2)cc1 (stereo partly shown) [NUCC-0202047]
[4]; [8]
  IC50: < 1 µM
[4]; [9]
  IC50: < 0.74 µM

## Cc1ccc(-c2ccc(OC(C)C(=O)N[C@H](C)c3ccc(C)cc3)c(CN3CCN(C)CC3)c2)cc1 (stereo partly shown) [NUCC-0202048]
[4]; [8]
  IC50: 1 to 2 µM
[4]; [9]
  IC50: 1.9 µM

## Cc1ccc([C@@H](C)NC(=O)C(C)Oc2ccc(-c3cc(Cl)cc(Cl)c3)cc2CN2CCN(C)CC2)cc1 (stereo partly shown) [NUCC-0202049]
[4]; [8]
  IC50: < 1 µM
[4]; [9]
  IC50: < 0.74 µM

## Cc1ccc(C(C)NC(=O)C(C)Oc2ccc(-c3cc(Cl)cc(-c4cc(Cl)cc(Cl)c4)c3)cc2CN2CCN(C)CC2)cc1 (stereo not shown) [NUCC-0202050]
[4]; [8]
  IC50: < 1 µM
[4]; [9]
  IC50: < 0.74 µM

## CN1CCN(Cc2cc(-c3ccc(N)cc3)ccc2OCC(=O)NCc2ccc(Cl)cc2)CC1 [NUCC-0202053]
[4]; [8]
  IC50: 10 to 20 µM
[4]; [9]
  IC50: 18 µM

## CN1CCN(Cc2cc(-c3ccc(Cl)cc3Cl)ccc2OCC(=O)NCc2ccc(Cl)cc2)CC1 [NUCC-0202054]
[4]; [8]
  IC50: < 1 µM
[4]; [9]
  IC50: < 0.74 µM
